Test results taken from patent US20230203060A1 (GENFLEET THERAPEUTICS (SHANGHAI) INC., priority 2020, published 2023).

What was measured:
[1] = tested on: KRAS G12C mutant MIA PaCa-2 cells; assay: Cell proliferation inhibition experiment, 3D spheroid, CellTiter-Glo, MIA PaCa-2; assay type: cell-based, human; details: Homo sapiens, MIA PaCa-2, 120 h, 3D cell model in 384-well spheroid plate, 5 days, CellTiter-Glo; read-out: MIA-PaCa2 IC50
Outline: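 200 MIA PaCa-2 cells/well grown overnight as 3D spheroids, then exposed to 3.16-fold compound dilutions (0.1% DMSO final) for 5 days. Viability read by CellTiter-Glo luminescence; inhibition calculated against DMSO and medium-only controls, and IC50 fitted by four-parameter model.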

[2] = target: T1, KRAS G12C (Homo sapiens, UniProt P01116, G12C); assay: KRAS G12C NEA-HTRF experiment (SOS1-catalyzed displacement of GDP by GTP); assay type: biochemical
T1 construct: purchased Reactionbiology
T1 sequence (P01116 1-188 isoform P01116-2 G12C): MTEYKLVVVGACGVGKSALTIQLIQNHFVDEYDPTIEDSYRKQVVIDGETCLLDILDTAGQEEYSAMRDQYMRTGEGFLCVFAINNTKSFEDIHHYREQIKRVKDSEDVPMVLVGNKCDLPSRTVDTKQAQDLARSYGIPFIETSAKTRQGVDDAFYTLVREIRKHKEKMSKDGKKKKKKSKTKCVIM
Outline: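 His-tagged KRAS G12C preloaded with DY647-GDP was preincubated 15 min at 20 °C with compound, then exchanged with SOS1 (0.2 μM working solution) and GTP (200 μM working solution) for 2 h at 20 °C in the dark. HTRF 665/615 nm ratio with anti-His-Tb was normalised to T0 and no-compound controls; IC50 by four-parameter fit.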

Row | Compound | IC50 [1] [µM] | IC50 [2] [µM]
1 | C=CC(=O)N1CCN2C(=O)c3c(N4CC(OC)CC4(C)C)nc(-c4c(O)cccc4F)c(Cl)c3OC[C@H]2C1 (stereo partly drawn) [Z244, (6aR)-8-acryloyl-4-chloro-3-(2-fluoro-6-hydroxyphenyl)-1-(4-methoxy-2,2-dimethylpyrrolidin-1-yl)-12-oxo-6,6a,7,8,9,10-hexahydro-12H-pyrazino[2,1-c]pyrido[3,4-f][1,4]oxazepin-12-one] | 0.007 | 0.047
2 | C=CC(=O)N1CCN2C(=O)c3c(N4CCO[C@](C)(COC)C4)nc(-c4c(O)cccc4F)c(Cl)c3OC[C@H]2C1 (single isomer, unassigned) [Z332-1] | 0.017 | 0.13
3 | C=CC(=O)N1CCN2C(=O)c3c(N4C[C@@H](O)CC4(C)C)nc(-c4c(F)ccc(F)c4O)c(F)c3OC[C@H]2C1 (single isomer, unassigned) [Z449-1] | 0.022 | 0.031
4 | C=CC(=O)N1CCN2C(=O)c3c(N4CCN(C(C)=O)C(C)(C)C4)nc(-c4c(O)cccc4F)c(Cl)c3OC[C@H]2C1 [Z315, (6aR)-1-(4-acetyl-3,3-dimethylpiperazin-1-yl)-8-acryloyl-4-chloro-3-(2-fluoro-6-hydroxyphenyl)-6,6a,7,8,9,10-hexahydro-12H-pyrazino[2,1-c]pyrido[3,4-f][1,4]oxazepin-12-one] | 0.0096 | 0.033
5 | C=CC(=O)N1CCN2C(=O)c3c(N4C[C@H](CO)CC4(C)C)nc(-c4c(O)cccc4F)c(Cl)c3OC[C@H]2C1 (single isomer, unassigned) [Z240-2] | 0.0033 | 0.011
6 | C=CC(=O)N1CCN2C(=O)c3c(N4CCN(C5COC5)C[C@@H]4C)nc(-c4c(O)cccc4F)c(Cl)c3OC[C@H]2C1 (single isomer, unassigned) [Z239-1] | 0.02 | 0.124
7 | C=CC(=O)N1CCN2C(=O)c3c(N4CCC(N(C)C)C4(C)C)nc(-c4c(O)cccc4F)c(Cl)c3OC[C@H]2C1 (stereo partly drawn) [Z334, (6aR)-8-acryloyl-4-chloro-1-(3-(dimethylamino)-2,2-dimethylpyrrolidin-1-yl)-3-(2-fluoro-6-hydroxyphenyl)-6,6a,7,8,9,10-hexahydro-12H-pyrazino[2,1-c]pyrido[3,4-f][1,4]oxazepin-12-one] | 0.011 | 0.079
8 | C=CC(=O)N1CCN2C(=O)c3c(N4C[C@@H](O)CC4(C)C)nc(-c4c(F)ccc(Cl)c4O)c(F)c3OC[C@H]2C1 (single isomer, unassigned) [Z341-1] | 0.024 | 0.035
9 | C=CC(=O)N1CCN2C(=O)c3c(N4C[C@H](OC)C[C@@H]4C)nc(-c4c(O)cccc4F)c(Cl)c3OC[C@H]2C1 [Z259a, (6aR)-8-acryloyl-4-chloro-3-(2-fluoro-6-hydroxyphenyl)-1-((2S,4R)-4-methoxy-2-methylpyrrolidin-1-yl)-6,6a,7,8,9,10-hexahydro-12H-pyrazino[2,1-c]pyrido[3,4-f][1,4]oxazepin-12-one] | 0.0044 | 0.026
10 | C=CC(=O)N1CCN2C(=O)c3c(N4CCN(C)C5(CC5)C4)nc(-c4c(O)cccc4F)c(Cl)c3OC[C@H]2C1 [Z83, (6aR)-8-acryloyl-4-chloro-3-(2-fluoro-6-hydroxyphenyl)-1-(4-methyl-4,7-diazaspiro[2 .5]octan-7-yl)-6,6a,7,8,9,10-hexahydro-12H-pyrazino[2,1-c]pyrido[3,4-f][1,4]oxazepin-12 (6aH)-one] | 0.0374 | 0.111
11 | C=CC(=O)N1CCN2C(=O)c3c(N4CCN(CC)C(C)(C)C4)nc(-c4c(O)cccc4F)c(Cl)c3OC[C@H]2C1 [Z322, (6aR)-8-actyloyl-4-chloro-3-(2-fluoro-6-hydroxyphenyl)-1-(4-ethyl-3,3-dimethylpiperazin-1-yl)-6,6a,7,8,9,10-hexahydro-12H-pyrazino[2,1-c]pyrido[3,4-f][1,4]oxazepin-12-one] | 0.0063 | 0.062
12 | C=CC(=O)N1CCN2C(=O)c3c(N4CCN(C)C(=O)[C@@H]4C)nc(-c4c(O)cccc4F)c(Cl)c3OC[C@H]2C1 [Z311-1, (6aR)-8-actyloyl-4-chloro-1-((S)-2,4-dimethyl-3-oxopiperazin-1-yl)-3-(2-fluoro-6-hydroxyphenyl)-6,6a,7,8,9,10-hexahydro-12H-pyrazino[2,1-c]pyrido[3,4-f][1,4]oxazepin-12-one] | 0.012 | 0.034
13 | C=CC(=O)N1CCN2C(=O)c3c(N4CCN(S(C)(=O)=O)C[C@@H]4C)nc(-c4c(O)cccc4F)c(Cl)c3OC[C@H]2C1 [Z318-1, (6aR)-8-acryloyl-1-((S)-2-methyl-4-(methylsulfonyl)piperazin-1-yl)-4-chloro-3-(2-fluoro-6-hydroxyphenyl)-6,6a,7,8,9,10-hexahydro-12H-pyrazino[2,1-c]pyrido[3,4-f][1,4]oxazepin-12-one] | 0.0109 | 0.037
14 | C=CC(=O)N1CCN2C(=O)c3c(N4CCO[C@](C)(CO)C4)nc(-c4c(O)cccc4F)c(Cl)c3OC[C@H]2C1 (single isomer, unassigned) [Z333-1] | 0.03 | 0.191
15 | C=CC(=O)N1CCN2C(=O)c3c(N4CC(C#N)CC4(C)C)nc(-c4c(O)cccc4F)c(Cl)c3OC[C@H]2C1 (stereo partly drawn) [Z275, (6aR)-8-acryloyl-1-(4-cyano-2,2-dimethylpyrrolidin-1-yl)-4-chloro-3-(2-fluoro-6-hydroxyphenyl)-6,6a,7,8,9,10-hexahydro-12H-pyrazino[2,1-c]pyrido[3,4-f][1,4]oxazepin-12-one] | 0.005 | 0.021
16 | C=CC(=O)N1CCN2C(=O)c3c(N4C[C@H](OC)CC4(C)C)nc(-c4c(O)cccc4F)c(F)c3OC[C@H]2C1 (single isomer, unassigned) [Z256a-2] | 0.0038 | 0.018
17 | C=CC(=O)N1CCN2C(=O)c3c(N4C[C@H](N(C)C)CC4(C)C)nc(-c4c(O)cccc4F)c(Cl)c3OC[C@H]2C1 (single isomer, unassigned) [Z324-2] | 0.0061 | 0.061
18 | C=CC(=O)N1CCN2C(=O)c3c(N4CCC(OC)C4(C)C)nc(-c4c(O)cccc4F)c(Cl)c3OC[C@H]2C1 (stereo partly drawn) [Z241a, (6aR)-8-acryloyl-4-chloro-3-(2-fluoro-6-hydroxyphenyl)-1-(3-methoxy-2,2-dimethylpyrrolidin-1-yl)-6,6a,7,8,9,10-hexahydro-12H-pyrazino[2,1-c]pyrido[3,4-f][1,4]oxazepin-12-one] | 0.0024 | 0.009
19 | C=CC(=O)N1CCN2C(=O)c3c(N4C[C@@H](OC)C[C@@H]4C)nc(-c4c(O)cccc4F)c(Cl)c3OC[C@H]2C1 [Z260a, (6aR)-8-acryloyl-4-chloro-3-(2-fluoro-6-hydroxyphenyl)-1-((2S,4S)-4-methoxy-2-methylpyrrolidin-1-yl)-6,6a,7,8,9,10-hexahydro-12H-pyrazino[2,1-c]pyrido[3,4-f][1,4]oxazepin-12-one] | 0.0036 | 0.027
20 | C=CC(=O)N1CCN2C(=O)c3c(N4CC(N(C)C5COC5)CC4(C)C)nc(-c4c(O)cccc4F)c(Cl)c3OC[C@H]2C1 (stereo partly drawn) [Z326, (6aR)-8-acryloyl-4-chloro-1-(2,2-dimethyl-4-(methyl(oxetan-3-yl)amino)pyrrolidin-1-yl)-3-(2-fluoro-6-hydroxyphenyl)-6,6a,7,8,9,10-hexahydro-12H-pyrazino[2,1-c]pyrido[3,4-f][1,4]oxazepin-12-one] | 0.0009 | 0.008
21 | C=CC(=O)N1CCN2C(=O)c3c(N4CC[C@@H](OC)C4(C)C)nc(-c4c(O)cccc4F)c(Cl)c3OC[C@H]2C1 (single isomer, unassigned) [Z241a-2] | 0.0015 | 0.005
